In one assay the test system is U937 cells. In words: U937 cell necroptosis assay (TNFa + zVAD, CellTiter-Glo). The format is cell-based, human. In outline:
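Human U937 and murine L929 cells in RPMI 1640/10% FBS were pre-incubated 1 h at 37 °C with serially diluted compound plus zVAD-fmk (U937 plated with 60 uM, L929 medium with 40 uM), then stimulated with 2 ng/mL TNFa (final). Viability read by CellTiter-Glo luminescence after 18 h.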
Background: Cellular ATP, detected with luciferase, serves as a proxy for viable cell number.

The next assay concerns L929 cells. In words: L929 cell necroptosis assay (TNFa + zVAD, CellTiter-Glo). Type of assay: cell-based, murine. The gist of the method:
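Murine L929 cells, plated 18 h beforehand at 10K cells/well in RPMI 1640 with 10% FBS, were switched to medium containing 40 uM zVAD-fmk and given compound from 4-fold serial dilutions. Viability after 18 h of TNFa stimulation at 37° C was read by CellTiter-Glo luminescence.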

The target in a further assay is RIPK1 (Homo sapiens (Human), UniProt Q13546). In words: RIPK1 ADP-Glo biochemical kinase assay. Here is the method: The final reaction volume was 5.0ul.
RIPK1, sequence (Q13546 whole entry, species assumed): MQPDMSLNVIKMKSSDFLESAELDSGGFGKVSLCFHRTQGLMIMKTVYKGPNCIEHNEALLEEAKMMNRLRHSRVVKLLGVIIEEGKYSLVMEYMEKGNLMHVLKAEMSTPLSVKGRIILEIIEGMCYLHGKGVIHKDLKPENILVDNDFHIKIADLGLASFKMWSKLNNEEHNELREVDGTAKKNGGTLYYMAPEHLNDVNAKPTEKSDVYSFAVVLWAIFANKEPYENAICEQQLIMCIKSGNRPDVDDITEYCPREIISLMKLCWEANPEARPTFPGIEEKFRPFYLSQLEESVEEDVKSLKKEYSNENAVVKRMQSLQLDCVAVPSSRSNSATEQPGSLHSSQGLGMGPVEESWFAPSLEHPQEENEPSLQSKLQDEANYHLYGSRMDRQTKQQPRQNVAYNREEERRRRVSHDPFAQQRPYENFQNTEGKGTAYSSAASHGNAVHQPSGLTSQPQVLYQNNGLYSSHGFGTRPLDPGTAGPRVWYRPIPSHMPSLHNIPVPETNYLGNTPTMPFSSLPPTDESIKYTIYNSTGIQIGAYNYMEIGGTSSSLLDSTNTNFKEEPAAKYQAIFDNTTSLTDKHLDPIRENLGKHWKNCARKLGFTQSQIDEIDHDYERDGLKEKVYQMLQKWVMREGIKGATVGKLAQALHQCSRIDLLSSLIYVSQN
Adding 5 μl of ADP-Glo™ terminated the reaction.
Background: ADP-Glo turns the ADP formed in a reaction into a luminescent signal.

Setting [1] is: Homo sapiens, U-937, U937 cells, TNFa + zVAD, read-out: U937 Zvad TNF CTG Recovery, U937, TNFa + zVAD (IC50).
[2] abbreviates: Mus musculus, L929, L929 cells, TNFa + zVAD, read-out: L929-CTG-recovery, L929, TNFa + zVAD (IC50).
Where [3] appears, read: read-out: RIPK1 ADP-Glo Kinase (IC50).
Setting [4] is: Mus musculus, L929, read-out: L929-CTG-recovery, L929, TNFa + zVAD (IC50), L929 cells, TNFa + zVAD.

pIC50: −log10 of the molar value. Structures can show the parent of a compound that is named as a salt. Where two headings read alike, the source gives them in different places.

With `CN1C(=O)[C@@H](NC(=O)c2n[nH]c(Cc3ccccc3)n2)COc2ccc(CN3CCn4nc(C(F)(F)F)nc4C3)cc21` [Compound I-40, (S)-5-benzyl-N-(5-methyl-4-oxo-7-((2-(trifluoromethyl)-5,6-dihydro-[1,2,4]triazolo[1,5-a]pyrazin-7(8H)-yl)methyl)-2,3,4,5-tetrahydrobenzo[b][1,4]oxazepin-3-yl)-1H-1,2,4-triazole-3-carboxamide], the pIC50 is 8.64 with U937 cells (setting [1]), 9.52 with L929 cells (setting [2]) and 7.05 at RIPK1 (setting [3]).

Take `CN1C(=O)[C@@H](NC(=O)n2cc(Cc3ccc(F)cc3F)cn2)COc2ccc(Br)cc21` [Compound I-237, (S)—N-(7-Bromo-5-methyl-4-oxo-2,3,4,5-tetrahydrobenzo[b][1,4]oxazepin-3-yl)-4-(2,4-difluorobenzyl)-1H-pyrazole-1-carboxamide]: the pIC50 was 6.87 in the assay on U937 cells (setting [1]), 4.81 in the assay with L929 cells (setting [2]) and 7.37 against RIPK1.

With `CN1C(=O)[C@@H](NC(=O)n2cc(Cc3ccc(F)cc3F)cn2)COc2ccc(C#CC(C)(C)CNC(=O)OC(C)(C)C)cc21` [Compound I-240, Tert-butyl (S)-(4-(3-(4-(2,4-difluorobenzyl)-1H-pyrazole-1-carboxamido)-5-methyl-4-oxo-2,3,4,5-tetrahydrobenzo[b][1,4]oxazepin-7-yl)-2,2-dimethylbut-3-yn-1-yl)carbamate], the pIC50 in the assay on U937 cells (setting [1]) is 7.82; with L929 cells (setting [2]), 6.03; against RIPK1, 6.58.

Regarding `C[C@H](N)C(=O)OC1(C#Cc2ccc3c(c2)N(C)C(=O)[C@@H](NC(=O)c2cc(Oc4ccccc4)ccn2)CO3)COC1` [Compound I-194, 3-(((S)-5-methyl-4-oxo-3-(4-phenoxypicolinamido)-2,3,4,5-tetrahydrobenzo[b][1,4]oxazepin-7-yl)ethynyl)oxetan-3-yl L-alaninate trifluoroacetic acid salt], the pIC50 with U937 cells (setting [1]) was 9.22; in the assay on L929 cells (Mus musculus, L929 cells, TNFa + zVAD, read-out: L929-CTG-recovery, L929, TNFa + zVAD (IC50)), 7.49; on RIPK1 (setting [3]) it was 7.73.

Turning to `CN1C(=O)[C@@H](NC(=O)c2ncn(Cc3ccccc3)n2)COc2ccc(CN3CCn4ncnc4C3)cc21` [Compound I-25, (S)-1-benzyl-N-(7-((5,6-dihydro-[1,2,4]triazolo[1,5-a]pyrazin-7(8H)-yl)methyl)-5-methyl-4-oxo-2,3,4,5-tetrahydrobenzo[b][1,4]oxazepin-3-yl)-1H-1,2,4-triazole-3-carboxamide], the values for the pIC50 with U937 cells (setting [1]), in the assay with L929 cells (setting [2]) and at RIPK1 (setting [3]) were 8.57, 6.31 and 7.29, respectively.

For `C=C(C#Cc1ccc2c(c1)N(C)C(=O)[C@@H](NC(=O)c1cc(Oc3ccc(F)cc3)ccn1)CO2)CCNC` [Compound I-138, (S)-4-(4-fluorophenoxy)-N-(5-methyl-7-(5-(methylamino)-3-methylenepent-1-yn-1-yl)-4-oxo-2,3,4,5-tetrahydrobenzo[b][1,4]oxazepin-3-yl)picolinamide], the pIC50 was 6.91 in the assay on U937 cells (setting [1]), 5.50 with L929 cells (setting [2]) and 7.11 on RIPK1 (setting [3]).

Regarding `CN1C(=O)[C@@H](NC(=O)c2n[nH]c(Cc3ccccc3)n2)COc2ccc(CCC(=O)Nc3ccc4cn[nH]c4c3)cc21` [Compound I-3, (S)—N-(7-(3-((1H-indazol-6-yl)amino)-3-oxopropyl)-5-methyl-4-oxo-2,3,4,5-tetrahydrobenzo[b][1,4]oxazepin-3-yl)-5-benzyl-1H-1,2,4-triazole-3-carboxamide], the pIC50 with U937 cells (setting [1]) is 8.31; in the assay with L929 cells (setting [2]), 6.37; on RIPK1 (setting [3]), 7.40.

In the case of `Cc1ccccc1Cn1cnc(C(=O)N[C@H]2COc3ccc(C#CC(C)(C)O)cc3N(C)C2=O)n1` [Compound I-82, (S)—N-(7-(3-hydroxy-3-methylbut-1-yn-1-yl)-5-methyl-4-oxo-2,3,4,5-tetrahydrobenzo[b][1,4]oxazepin-3-yl)-1-(2-methylbenzyl)-1H-1,2,4-triazole-3-carboxamide], the figures for the pIC50 in the assay on U937 cells (setting [1]), in the assay with L929 cells (setting [2]) and on RIPK1 (setting [3]) were 8.72, 9.52 and 7.59, respectively.

Take `CN1C(=O)[C@@H](NC(=O)c2cc(Oc3ccccc3)ccn2)COc2ccc(CCC(N)=O)cc21` [II-24, (S)—N-(7-(3-amino-3-oxopropyl)-5-methyl-4-oxo-2,3,4,5-tetrahydrobenzo[b][1,4]oxazepin-3-yl)-4-phenoxypicolinamide]: the pIC50 was 7.78 in the assay on U937 cells (Homo sapiens, U-937, read-out: U937 Zvad TNF CTG Recovery, U937, TNFa + zVAD (IC50), U937 cells, TNFa + zVAD); 5.10 in the assay on L929 cells (setting [4]); 7.25 on RIPK1 (setting [3]).

For the compound `CN[C@@H](C)C(=O)OC1(C#Cc2ccc3c(c2)N(C)C(=O)[C@@H](NC(=O)c2cc(Oc4ccccc4)ccn2)CO3)COC1` [Compound I-193], the pIC50 with U937 cells (U937 cells, TNFa + zVAD, read-out: U937 Zvad TNF CTG Recovery, U937, TNFa + zVAD (IC50)) is 6.44; in the assay with L929 cells (L929 cells, TNFa + zVAD, read-out: L929-CTG-recovery, L929, TNFa + zVAD (IC50)), 5.15; at RIPK1 (setting [3]), 7.26.

Regarding `CN1C(=O)[C@@H](NC(=O)c2n[nH]c(Cc3ccccc3)n2)COc2ccc(CCC(=O)Nc3ccc4cccnc4c3)cc21` [Compound I-12, (S)-5-benzyl-N-(5-methyl-4-oxo-7-(3-oxo-3-(quinolin-7-ylamino)propyl)-2,3,4,5-tetrahydrobenzo[b][1,4]oxazepin-3-yl)-1H-1,2,4-triazole-3-carboxamide], the pIC50 in the assay on U937 cells (setting [1]) is 8.28; in the assay with L929 cells (setting [4]) it was 4.38; at RIPK1 (setting [3]) it was 7.28.

As for `CN1C(=O)[C@@H](NC(=O)c2n[nH]c(Cc3ccccc3)n2)COc2ccc(C#CCCCO)cc21` [Compound I-35, (S)-5-benzyl-N-(7-(5-hydroxypent-1-yn-1-yl)-5-methyl-4-oxo-2,3,4,5-tetrahydrobenzo[b][1,4]oxazepin-3-yl)-1H-1,2,4-triazole-3-carboxamide], the results for the pIC50 in the assay on U937 cells (setting [1]), with L929 cells (setting [2]) and at RIPK1 (setting [3]) were 8.51, 7.75 and 7.65, respectively.

Regarding `CN1C(=O)[C@@H](NC(=O)n2cc(Cc3ccccc3)cn2)COc2ccc(N3CC4(CCOCC4)C3)cc21` [Compound I-217, (S)-4-Benzyl-N-(5-methyl-4-oxo-7-(7-oxa-2-azaspiro[3.5]nonan-2-yl)-2,3,4,5-tetrahydrobenzo[b][1,4]oxazepin-3-yl)-1H-pyrazole-1-carboxamide], the pIC50 in the assay with U937 cells (setting [1]) is 9.30; in the assay on L929 cells (setting [2]) it was 6.22; at RIPK1 it was 7.62.

On to `CN1C(=O)[C@@H](NC(=O)c2ncn(Cc3ccccc3)n2)COc2ccc(C#CCCOc3cccc4ncccc34)cc21` [Compound I-44, (S)-1-benzyl-N-(5-methyl-4-oxo-7-(4-(quinolin-5-yloxy)but-1-yn-1-yl)-2,3,4,5-tetrahydrobenzo[b][1,4]oxazepin-3-yl)-1H-1,2,4-triazole-3-carboxamide], for which the pIC50 in the assay with U937 cells (setting [1]) was 8.96; with L929 cells (setting [2]), 9.70; at RIPK1 (setting [3]), 7.47.

As for `CN1C(=O)[C@@H](NC(=O)c2n[nH]c(Cc3ccccc3)n2)COc2ccc(C#CC3(O)CCCC3)cc21` [Compound I-53, (S)-5-benzyl-N-(7-((1-hydroxycyclopentyl)ethynyl)-5-methyl-4-oxo-2,3,4,5-tetrahydrobenzo[b][1,4]oxazepin-3-yl)-1H-1,2,4-triazole-3-carboxamide], the pIC50 in the assay on U937 cells (setting [1]) was 8.74; with L929 cells (setting [2]), 9.30; on RIPK1 (setting [3]), 7.47.

As for `C#Cc1ccc2c(c1)N(C)C(=O)[C@@H](NC(=O)c1n[nH]c(Cc3ccccc3)n1)CO2` [Compound I-81, (S)-5-benzyl-N-(7-ethynyl-5-methyl-4-oxo-2,3,4,5-tetrahydrobenzo[b][1,4]oxazepin-3-yl)-1H-1,2,4-triazole-3-carboxamide], the pIC50 with U937 cells (setting [1]) is 8.38; with L929 cells (setting [2]), 8.92; on RIPK1 (setting [3]), 7.72.

Turning to `CN1C(=O)[C@@H](NC(=O)c2cc(Cc3ccc(F)cc3)ccn2)COc2ccc(C#CC3(O)COC3)cc21` [Compound I-126, (S)-4-(4-fluorobenzyl)-N-(7-((3-hydroxyoxetan-3-yl)ethynyl)-5-methyl-4-oxo-2,3,4,5-tetrahydrobenzo[b][1,4]oxazepin-3-yl)picolinamide], the pIC50 in the assay on U937 cells (setting [1]) was 8.46; in the assay with L929 cells (setting [2]), 7.26; at RIPK1 (setting [3]) it was 7.61.

Regarding `CN1C(=O)[C@@H](NC(=O)c2ncn(Cc3c(Cl)cccc3Cl)n2)COc2ccc(CCC(=O)N3CCCC3)cc21` [Compound I-18, (S)-1-(2,6-dichlorobenzyl)-N-(5-methyl-4-oxo-7-(3-oxo-3-(pyrrolidin-1-yl)propyl)-2,3,4,5-tetrahydrobenzo[b][1,4]oxazepin-3-yl)-1H-1,2,4-triazole-3-carboxamide], the pIC50 in the assay on U937 cells (setting [1]) is 8.89; with L929 cells (setting [2]) it was 6.55; on RIPK1 (setting [3]), 6.78.

Turning to `CN1C(=O)[C@@H](NC(=O)c2ncn(Cc3ccccc3)n2)COc2cc(CN3CCn4nc(C(F)(F)F)nc4C3)ccc21` [Compound I-67, (S)-1-benzyl-N-(5-methyl-4-oxo-8-((2-(trifluoromethyl)-5,6-dihydro-[1,2,4]triazolo[1,5-a]pyrazin-7(8H)-yl)methyl)-2,3,4,5-tetrahydrobenzo[b][1,4]oxazepin-3-yl)-1H-1,2,4-triazole-3-carboxamide], the pIC50 is 7.82 in the assay with U937 cells (setting [1]), 8.07 in the assay with L929 cells (setting [2]) and 7.38 on RIPK1 (setting [3]).

For orientation: pIC50 means the IC50 on a negative log10 scale, so that one unit is a factor of ten.

The record behind these values is patent US11407736B2 (priority 2019, dated 2022).
